From ChEMBL document CHEMBL5052849, “Compositions and methods for measuring and inhibiting calpain-5 activity” (2021) come the findings set out here.

Common to all, as to set-up: species or system Homo sapiens
Experiment [1] in a line: Inhibition of wild-type CAPN5 (unknown origin).
Experiment [2] in a line: Inhibition of CAPN5 R243L mutant (unknown origin).
Experiment [3] in a line: Inhibition of CAPN5 G267S mutant (unknown origin) using DABCYL-TPLKSPPPSPR-EDANS as substrate incubated for 30 mins and measured by High-throughput FRET-based assay.

Each structure is given as a SMILES string. Non-standard residues stand in square brackets, D forms with d. Residues, ends and D or L forms follow the SMILES beside them. Nle = CCCC[C@H](N)C(=O)O

A word on the IC50: it is the midpoint of a concentration-inhibition curve. As to `CC(=O)N[C@@H](CC(C)C)C(=O)N[C@@H](CC(C)C)C(=O)N[C@H](C=O)CCCNC(=N)N` [LEUPEPTIN], the IC50 in experiment [1] is 0.165 µM; in experiment [2], “Not Active”.
As for `CC[C@H](C)[C@H](NC(=O)[C@H](CCC(=O)O)NC(=O)[C@@H](NC(=O)[C@@H](N)CCCCN)[C@@H](C)CC)C(=O)N[C@H](C(=O)N[C@@H](CCCNC(=N)N)C(=O)N[C@@H](CCCCNC)C(=O)N[C@@H](CCCCN)C(=O)N1CCC[C@H]1C(=O)N[C@H](C(=O)N[C@@H](Cc1ccccc1)C(=O)N[C@@H](CCCCN)C(=O)N[C@@H](CCCCN)C(=O)N[C@@H](C)C(=O)N[C@H](C(=O)N[C@H](C(=O)O)C(C)C)[C@@H](C)O)[C@@H](C)CC)C(C)C` (HELM PEPTIDE1{K.I.E.I.V.R.[CNCCCC[C@H](N[*:1])C(=O)[*:2]].K.P.I.F.K.K.A.T.V}$$$$V2.0), the figures for the IC50 in experiment [3], in experiment [1] and in experiment [2] (read-out: IC50) were 0.0036 µM, 24 µM and 0.0295 µM, respectively.
`CCCC[C@@H](C=O)NC(=O)[C@H](CC(C)C)NC(=O)OCc1ccccc1` [CALPEPTIN]: the IC50 in experiment [3] is 1.1 µM; in experiment [1], 0.00835 µM; in experiment [2], “Not Active”.
The compound `CCCC[C@@H](C=O)NC(=O)[C@H](CC(C)C)NC(=O)[C@H](CC(C)C)NC(C)=O` (Ac-Leu-Leu-[Nle]-aldehyde) registered an IC50 in experiment [3] of 0.136 µM.
`CC[C@H](C)[C@H](NC(=O)[C@H](CCC(=O)O)NC(=O)[C@@H](NC(=O)[C@@H](N)CCCCN)[C@@H](C)CC)C(=O)N[C@H](C(=O)N[C@@H](CCCNC(=N)N)C(=O)N[C@@H](CCCCNC)C(=O)N[C@@H](CCCCNC)C(=O)N1CCC[C@H]1C(=O)N[C@H](C(=O)N[C@@H](Cc1ccccc1)C(=O)N[C@@H](CCCCN)C(=O)N[C@@H](CCCCN)C(=O)N[C@@H](C)C(=O)N[C@H](C(=O)N[C@H](C(=O)O)C(C)C)[C@@H](C)O)[C@@H](C)CC)C(C)C` (HELM PEPTIDE1{K.I.E.I.V.R.[CNCCCC[C@H](N[*:1])C(=O)[*:2]].[CNCCCC[C@H](N[*:1])C(=O)[*:2]].P.I.F.K.K.A.T.V}$$$$V2.0): the IC50 came to 1.2 µM in experiment [3], 0.496 µM in experiment [1] and 0.126 µM in experiment [2] (read-out: IC50).
